The values that follow come from publication PMC5609876, “Metformin selectively targets redox control of complex I energy transduction” (Redox Biology, 2017).

For test [1], the target named is T1, complex I.
T1 construct: gene NDUFV1; MitoTox Complex I OXPHOS Activity Microplate Assay (ab109903)
The experiment in a line: complex I NADH:paraquat electron transfer, microplate activity assay (ubiquinone replaced by paraquat). In kind it is biochemical, Bos taurus.

Test [2] relates to T2, complex I.
T2 construct: gene Ndufv1; submitochondrial particles from rat liver
The experiment in a line: NADH oxidation in rat liver submitochondrial particles. In kind it is biochemical.

SMILES strings stand for the structures. Where two headings read alike, the source gives them in different places.

In general, IC50 refers to the concentration that inhibits the measured activity by half. For `CN(C)C(=N)N=C(N)N` [metformin], the IC50 in test [1] (read-out: IC50) came out at 91 mM.
With `[H]/N=C(/N)N/C(=N/[H])NCCc1ccccc1` [phenformin], the “NADH oxidation in rat liver submitochondrial particles” value in test [2] is “Effects of both phenformin and DG5 on NADH oxidation were observed at much lower concentrations than responses to metformin”.
As for `[H]/N=C(/N)NCCCCCNC(=N)N` [DG5], in test [1], half-maximal inhibition (IC50) was put at 12 mM.
